Several values for one entry are separate records, joined by “and”; a condition that tells them apart may be missing. Identical values can stand only once. Inconclusive results and toxic doses are left out. Where a SMILES comes first, the peptide text is derived from it.
Test system: B6C3F1 mice, B16 melanoma ip, median survival T/C
Assay: NCI In Vivo Anticancer Drug Screen. Data for tumor model B16 Melanoma (intraperitoneal) in B6C3F1 mice
Settings: endpoint: median survival time, higher = longer survival
Protocol: The antitumor activity of compounds was measured in mice bearing transplantable tumors. Survival or tumor size were measured and the results are expressed as the measurement made in the treated group (T) divided by the measurement made in the vehicle treated control group (C). The tumor model used in this assay is B16 Melanoma (intraperitoneal) in B6C3F1 mice

[1] = dose: 6.25 mg/kg/injection, schedule: Q01DX009 (ip), vehicle: Klucel (hydroxypropylcellulose) (HPC)
[2] = dose: 25.0 mg/kg/injection, schedule: Q01DX009 (ip), vehicle: saline
[3] = dose: 12.5 mg/kg/injection, schedule: Q01DX009 (ip), vehicle: saline with Tween-80
[4] = dose: 25.0 mg/kg/injection, schedule: Q01DX009 (ip), vehicle: saline with Tween-80
[5] = dose: 50.0 mg/kg/injection, schedule: Q01DX009 (ip), vehicle: saline with Tween-80
[6] = dose: 12.5 mg/kg/injection, schedule: Q01DX009 (ip), vehicle: Klucel (hydroxypropylcellulose) (HPC)
[7] = dose: 25.0 mg/kg/injection, schedule: Q01DX009 (ip), vehicle: Klucel (hydroxypropylcellulose) (HPC)
[8] = dose: 100.0 mg/kg/injection, schedule: Q01DX009 (ip), vehicle: Klucel (hydroxypropylcellulose) (HPC)
[9] = dose: 200.0 mg/kg/injection, schedule: Q01DX009 (ip), vehicle: Klucel (hydroxypropylcellulose) (HPC)
[10] = dose: 400.0 mg/kg/injection, schedule: Q01DX009 (ip), vehicle: Klucel (hydroxypropylcellulose) (HPC)

With `O=NN(CCCl)C(=O)NCCCl` the T/C (dose: 1.5 mg/kg/injection, schedule: Q01DX009 (ip), vehicle: alcohol) was 112 % of control and 118 % of control, the T/C (dose: 1.5 mg/kg/injection, schedule: Q01DX009 (ip), vehicle: other) was 108 % of control and the T/C (dose: 3.0 mg/kg/injection, schedule: Q01DX009 (ip), vehicle: other) was 116 % of control. For the same compound, the T/C (dose: 5.0 mg/kg/injection, schedule: Q01DX005 (iv), vehicle: saline + alcohol) was 107 % of control, the T/C (dose: 6.0 mg/kg/injection, schedule: Q01DX009 (ip), vehicle: alcohol) was 184 % of control and the T/C (dose: 6.0 mg/kg/injection, schedule: Q01DX009 (ip), vehicle: other) was 154 % of control. The T/C (dose: 10.0 mg/kg/injection, schedule: Q01DX001 (ip), vehicle: saline + alcohol) was 120 % of control, the T/C (dose: 10.0 mg/kg/injection, schedule: Q01DX001 (ip), vehicle: saline) was 111 % of control and 120 % of control and the T/C (dose: 10.0 mg/kg/injection, schedule: Q01DX001 (iv), vehicle: saline + alcohol) was 104 % of control. The T/C (dose: 10.0 mg/kg/injection, schedule: Q01DX005 (iv), vehicle: saline + alcohol) was 124 % of control, the T/C (dose: 12.0 mg/kg/injection, schedule: Q01DX009 (ip), vehicle: other) was 110 % of control and the T/C (dose: 20.0 mg/kg/injection, schedule: Q01DX001 (ip), vehicle: saline + alcohol) was 154 % of control. The T/C (dose: 30.0 mg/kg/injection, schedule: Q01DX001 (ip), vehicle: saline) was 156 % of control, the T/C (dose: 40.0 mg/kg/injection, schedule: Q01DX001 (ip), vehicle: saline + alcohol) was 175 % of control and the T/C (dose: 40.0 mg/kg/injection, schedule: Q01DX001 (iv), vehicle: saline + alcohol) was 185 % of control.

With `O=C1C(=O)c2cccnc2-c2ncccc21` the T/C (dose: 0.75 mg/kg/injection, schedule: Q01DX009 (ip), vehicle: Klucel (hydroxypropylcellulose) (HPC)) was 104 % of control, the T/C (dose: 0.78 mg/kg/injection, schedule: Q01DX009 (ip), vehicle: Klucel (hydroxypropylcellulose) (HPC)) was 102 % of control and the T/C (dose: 1.5 mg/kg/injection, schedule: Q01DX009 (ip), vehicle: Klucel (hydroxypropylcellulose) (HPC)) was 115 % of control and 107 % of control. The T/C (dose: 1.56 mg/kg/injection, schedule: Q01DX009 (ip), vehicle: Klucel (hydroxypropylcellulose) (HPC)) was 115 % of control and 98 % of control, the T/C (dose: 3.0 mg/kg/injection, schedule: Q01DX009 (ip), vehicle: Klucel (hydroxypropylcellulose) (HPC)) was 119 % of control and 92 % of control and 98 % of control and the T/C (dose: 3.12 mg/kg/injection, schedule: Q01DX009 (ip), vehicle: Klucel (hydroxypropylcellulose) (HPC)) was 114 % of control and 100 % of control. The T/C (dose: 6.0 mg/kg/injection, schedule: Q01DX009 (ip), vehicle: Klucel (hydroxypropylcellulose) (HPC)) was 113 % of control and 87 % of control and 108 % of control and the T/C [1] was 109 % of control.

With `CC(=O)NCCSSCCCCS(=O)O` the T/C [2] was 96 % of control, the T/C (dose: 50.0 mg/kg/injection, schedule: Q01DX009 (ip), vehicle: saline) was 103 % of control and the T/C (dose: 100.0 mg/kg/injection, schedule: Q01DX009 (ip), vehicle: saline) was 98 % of control. The T/C (dose: 200.0 mg/kg/injection, schedule: Q01DX009 (ip), vehicle: saline) was 111 % of control and the T/C (dose: 400.0 mg/kg/injection, schedule: Q01DX009 (ip), vehicle: saline) was 96 % of control.

`O=C(CN1CCOCC1)Nc1nc(-c2ccc(Cl)cc2)cs1` was tested, and the T/C [3] was 105 % of control, the T/C [4] was 94 % of control and the T/C [5] was 96 % of control. For the same compound, the T/C (dose: 100.0 mg/kg/injection, schedule: Q01DX009 (ip), vehicle: saline with Tween-80) was 103 % of control and the T/C (dose: 200.0 mg/kg/injection, schedule: Q01DX009 (ip), vehicle: saline with Tween-80) was 98 % of control.

For `CNC(=S)N/N=C(/C)CCc1c(C)nn(C(=S)NC)c1C`, the T/C [6] was 103 % of control, the T/C [7] was 106 % of control and the T/C (dose: 50.0 mg/kg/injection, schedule: Q01DX009 (ip), vehicle: Klucel (hydroxypropylcellulose) (HPC)) was 102 % of control.

With `O=C(Nc1ccc(C2=NCCCN2)cc1)c1ccc(C(=O)Nc2ccc(C3=NCCCN3)cc2)nc1` the T/C (dose: 0.31 mg/kg/injection, schedule: Q01DX009 (ip), vehicle: saline with Tween-80) was 100 % of control, the T/C (dose: 0.62 mg/kg/injection, schedule: Q01DX009 (ip), vehicle: saline with Tween-80) was 106 % of control and the T/C (dose: 1.25 mg/kg/injection, schedule: Q01DX009 (ip), vehicle: saline with Tween-80) was 105 % of control. For the same compound, the T/C (dose: 2.5 mg/kg/injection, schedule: Q01DX009 (ip), vehicle: saline with Tween-80) was 100 % of control and the T/C (dose: 5.0 mg/kg/injection, schedule: Q01DX009 (ip), vehicle: saline with Tween-80) was 100 % of control.

In the case of `CC(=O)Nc1ccc(/C=N/Nc2ccc([N+](=O)[O-])cn2)cc1`, the T/C [3] is reported as 89 % of control and the T/C [4] is reported as 89 % of control.

`NCC(=O)NC(Cc1ccccc1)C(=O)NCC(=O)O` (configuration not stated) (HELM PEPTIDE1{G.[O=C(C(Cc1ccccc1)N[*:1])[*:2]].G}$$$$V2.0) was tested, and the T/C [8] was 103 % of control, the T/C [9] was 95 % of control and the T/C [10] was 100 % of control.

In the case of `CC(O)C(NC(=O)CNC(=O)CNC(=O)OCc1ccccc1)C(=O)O` (configuration not stated) (HELM PEPTIDE1{[O=C(OCc1ccccc1)[*:2]].G.G.[CC(O)C(N[*:1])C(=O)O]}$$$$V2.0), the T/C [8] is reported as 103 % of control, the T/C [9] is reported as 106 % of control and the T/C [10] is reported as 113 % of control.

With `O=C(C1CO1)C(Cl)(Cl)Cl` (configuration not stated) the T/C (dose: 12.0 mg/kg/injection, schedule: Q01DX009 (ip), vehicle: saline) was 92 % of control and the T/C [2] was 106 % of control.

For `Nc1n[n+](-c2ccccc2)no1`, the T/C (dose: 3.12 mg/kg/injection, schedule: Q01DX009 (ip), vehicle: water) was 98 % of control, the T/C (dose: 6.25 mg/kg/injection, schedule: Q01DX009 (ip), vehicle: water) was 107 % of control and the T/C (dose: 12.5 mg/kg/injection, schedule: Q01DX009 (ip), vehicle: water) was 118 % of control.

In the case of `COC1C(O)C(C)OC(OC2C(Oc3cccc4c(O)c5c(=O)oc6ccc(C)c7c(=O)oc(c34)c5c67)OC(C)C(O)C2O)C1O` (configuration not stated), the T/C [4] is reported as 170 % of control and the T/C [5] is reported as 168 % of control.

For `CCN(CC)c1ccc2cc(-c3nc4ccccc4n3C)c(=O)oc2c1`, the T/C [1] was 94 % of control and 101 % of control, the T/C [6] was 102 % of control and 106 % of control and the T/C [7] was 108 % of control and 111 % of control.

In the case of `OCc1c(CO)c(-c2ccc(Cl)cc2)n2c1CCC2`, the T/C (dose: 25.0 mg/kg/injection, schedule: Q01DX009 (ip), vehicle: distilled water + Tween-80) is reported as 94 % of control, the T/C (dose: 50.0 mg/kg/injection, schedule: Q01DX009 (ip), vehicle: distilled water + Tween-80) is reported as 107 % of control and the T/C (dose: 100.0 mg/kg/injection, schedule: Q01DX009 (ip), vehicle: distilled water + Tween-80) is reported as 121 % of control. For the same compound, the T/C (dose: 200.0 mg/kg/injection, schedule: Q01DX009 (ip), vehicle: distilled water + Tween-80) was 198 % of control.

With `Cc1c2ccncc2c(C)c2c1[nH]c1ccccc12` the T/C (dose: 1.25 mg/kg/injection, schedule: Q01DX009 (ip), vehicle: distilled water + Tween-80) was 106 % of control, the T/C (dose: 1.25 mg/kg/injection, schedule: Q01DX009 (ip), vehicle: water) was 105 % of control and the T/C (dose: 2.5 mg/kg/injection, schedule: Q01DX009 (ip), vehicle: distilled water + Tween-80) was 117 % of control. For the same compound, the T/C (dose: 2.5 mg/kg/injection, schedule: Q01DX009 (ip), vehicle: water) was 104 % of control, the T/C (dose: 5.0 mg/kg/injection, schedule: Q01DX009 (ip), vehicle: water) was 117 % of control and the T/C (dose: 10.0 mg/kg/injection, schedule: Q01DX009 (ip), vehicle: distilled water + Tween-80) was 151 % of control. For the same compound, the T/C (dose: 20.0 mg/kg/injection, schedule: Q01DX009 (ip), vehicle: distilled water + Tween-80) was 173 % of control.

For `CCCCCCCCCCCCCCC/C([O-])=N/[N+](C)(C)CC(C)O` (configuration not stated), the T/C (dose: 25.0 mg/kg/injection, schedule: Q01DX001 (ip), vehicle: saline with Tween-80) was 105 % of control, the T/C (dose: 50.0 mg/kg/injection, schedule: Q01DX001 (ip), vehicle: saline with Tween-80) was 96 % of control and the T/C (dose: 50.0 mg/kg/injection, schedule: Q01DX001 (ip), vehicle: saline) was 105 % of control. For the same compound, the T/C (dose: 100.0 mg/kg/injection, schedule: Q01DX001 (ip), vehicle: saline with Tween-80) was 97 % of control, the T/C (dose: 200.0 mg/kg/injection, schedule: Q01DX001 (ip), vehicle: saline with Tween-80) was 104 % of control and the T/C (dose: 200.0 mg/kg/injection, schedule: Q01DX001 (ip), vehicle: saline) was 86 % of control. The T/C (dose: 400.0 mg/kg/injection, schedule: Q01DX001 (ip), vehicle: saline with Tween-80) was 100 % of control.

From PubChem BioAssay AID200 (DTP/NCI, 2004)
